Results taken from article PMC12644462, “A novel radiosensitizer α-sulfoquinovosyl-acylpropanediol (SQAP) inhibits DNA repair pathways and sensitize cells to cancer chemotherapeutic agents” (Scientific Reports, 2025).
Read-outs that look alike come from different tables or passages of the source.

Legend:
[1] = tested on: dogs and cats with cancer; conditions: dogs and cats with cancer receiving radiation therapy ref 8, 9; cited from earlier work
[2] = tested on: CHO cells; test: Chromosome aberration assay; format: cell-based, Chinese hamster; conditions: G1-irradiated CHO cells, 4 Gy, with SQAP
Method: Two hours after mitotic shake-off and replating, CHO cells in the G1 phase were irradiated. After 10 h, colcemid was added for 6 h to collect metaphase cells. Chromosome spreads were prepared as sister chromatid exchange assay and stained with a 5% Giemsa stain. At least 50 metaphase spreads were scored in three independent experiments.

[3] = in vivo ref 34; cited from earlier work
[4] = tested on: HR activity in HeLa DR-GFP cells; test: DR-GFP DNA repair reporter assay; format: cell-based, human; conditions: 30 µM SQAP, p < 0.05
Method: (§1) HR and NHEJ activities were assessed using the DR-GFP reporter system[25] and the EJ5-GFP reporter system, respectively. pDRGFP and pCBASceI were gifts from Dr. Maria Jasin (Addgene plasmid #26475 and #26477). pimEJ5GFP was a gift from Dr. Jeremy Stark (Addgene plasmid # 44026). The assays were performed as previously described. Briefly, HeLa cells expressing DR-GFP, or EJ5-GFP were transfected with a plasmid encoding an I-SceI endonuclease using FuGENE HD transfection reagent (Promega, Madison, WI, USA). HR and NHEJ frequencies were analyzed by counting GFP positive cells with a FACS Lyric flow cytometer (BD Biosciences, San Jose, CA, USA) at 48 h post-transfection. Drug treatment was performed 3 h after transfection, and medium was replaced with the drug until FACS analysis. Relative HR and NHEJ efficiencies were calculated by normalizing to control cell values. A total of 50,000 cells were counted for each condition.

[5] = tested on: Chinese hamster V79 cells; test: Colony formation assay, radio- and chemosensitization; format: cell-based
Method: For hypoxia irradiation, cell cultures were placed in Aneropak Kenki system (Mitsubishi Gas Chemical, Tokyo, Japan) with oxygen meter to confirm pO2 below 0.1%. Cells were kept in hypoxia for 3 h before irradiation.

[6] = tested on: seven canine cancer cell lines; conditions: all seven cell lines
Method: Sensitivity to radiation or chemical reagents was assessed through colony formation assays. After trypsinized single cells were plated to form 20–200 colonies per dish and then treated with SQAP for 3 h in normoxia or hypoxia, the cells were irradiated. For drug sensitivity study, trypsinized cells were plated and then treated with various dosage of testing agents. After seven days of incubation, colonies were fixed, stained and scored. Regression curves were drawn from survival fraction, and D10 values (doses to achieve 10% cell survival) were calculated by Prism 8 (GraphPad software, San Diego, CA, USA) from at least three independent experiments. Oxygen enhancement ratio (OER) and sensitization enhancement ratio (SER) values were calculated from D10 values. OER values were calculated from the D10 value in hypoxia divided by the D10 value in normoxic condition. SER values were calculated from the D10 value without SQAP divided by the D10 value with SQAP.

[7] = tested on: NHEJ activity in HeLa EJ5-GFP cells; test: EJ5-GFP DNA repair reporter assay; format: cell-based, human; conditions: 30 µM SQAP, p < 0.05
Method: as §1

[8] = molecular target: T1, Topo I (Homo sapiens, UniProt P11387); test: Topoisomerase I assay; format: biochemical; conditions: supercoiled pHOT1 DNA, 37 °C, 30 min
T1 sequence (P11387 1-765): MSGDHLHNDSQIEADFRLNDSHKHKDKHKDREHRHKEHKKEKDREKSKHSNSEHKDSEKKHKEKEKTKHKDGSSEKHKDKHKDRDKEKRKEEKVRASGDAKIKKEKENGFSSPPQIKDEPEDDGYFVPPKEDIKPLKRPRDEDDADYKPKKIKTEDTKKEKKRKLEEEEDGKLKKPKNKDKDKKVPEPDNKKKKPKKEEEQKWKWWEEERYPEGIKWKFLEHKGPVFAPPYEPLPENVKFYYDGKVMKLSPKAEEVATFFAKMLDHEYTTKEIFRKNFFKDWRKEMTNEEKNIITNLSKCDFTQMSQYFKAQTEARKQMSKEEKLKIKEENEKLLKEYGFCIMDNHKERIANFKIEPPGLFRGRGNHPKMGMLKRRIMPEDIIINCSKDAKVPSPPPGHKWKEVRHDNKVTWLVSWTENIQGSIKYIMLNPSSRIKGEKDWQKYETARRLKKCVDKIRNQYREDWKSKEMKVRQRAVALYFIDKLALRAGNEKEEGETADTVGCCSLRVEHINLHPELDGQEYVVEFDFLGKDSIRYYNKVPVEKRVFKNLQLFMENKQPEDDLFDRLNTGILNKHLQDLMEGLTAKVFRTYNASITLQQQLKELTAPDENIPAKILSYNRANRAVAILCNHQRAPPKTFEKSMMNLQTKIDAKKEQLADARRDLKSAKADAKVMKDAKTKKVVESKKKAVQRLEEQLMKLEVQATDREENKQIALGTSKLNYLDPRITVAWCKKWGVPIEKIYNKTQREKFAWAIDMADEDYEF
Method: (§2) For topoisomerase (Topo) I assay, a mixture of 125 ng of supercoiled pHOT1 DNA, 1U of Topo I enzyme, and various concentrations of SQAP in 1 mM Tris-HCl (pH7.9), 0.1 mM EDTA, 0.015 M NaCl, 0.01% BSA, 0.01 mM Spermidine and 0.5% glycerol was incubated at 37 °C for 30 min. For Topo II alpha assay, a mixture of 10 µL containing of 50 ng of […] DNA in 0.05 M Tris-HCl (pH8), 1U of Topo II alpha, various concentrations of SQAP in 0.15 M NaCl, 10 mM MgCl2, 0.5mM DTT, 30 µg/mL of BSA, 2 mM ATP was incubated at 37 °C for 30 min. After the reaction was terminated, electrophoresis was conducted at 50 V for 3 h, followed by ethidium bromide staining. DNA images were obtained by a Bio-Rad imager (Bio-Rad, Hercules, CA, USA) and quantified with Image Lab software (Bio-Rad).

[9] = tested on: histone deacetylase 1 (HDAC1); parameters: method as in PMID 33577659; conditions: cited from earlier work
[10] = molecular target: Topo II alpha (Homo sapiens, UniProt P11388); test: Topoisomerase II alpha assay; format: biochemical; conditions: kinetochore DNA, 37 °C, 30 min
Method: as §2

[11] = tested on: poly (ADP-ribose) polymerase (PARP); parameters: method as in PMID 37973295; conditions: cited from earlier work
[12] = tested on: Chinese hamster V79 cells; test: Colony formation assay, radio- and chemosensitization; format: cell-based; conditions: V79, gamma-rays, normoxic condition
[13] = tested on: HDAC1 expression; parameters: method as in PMID 33577659; conditions: hypoxic conditions ref 11; cited from earlier work

Chain of Topo II alpha (P11388 whole entry): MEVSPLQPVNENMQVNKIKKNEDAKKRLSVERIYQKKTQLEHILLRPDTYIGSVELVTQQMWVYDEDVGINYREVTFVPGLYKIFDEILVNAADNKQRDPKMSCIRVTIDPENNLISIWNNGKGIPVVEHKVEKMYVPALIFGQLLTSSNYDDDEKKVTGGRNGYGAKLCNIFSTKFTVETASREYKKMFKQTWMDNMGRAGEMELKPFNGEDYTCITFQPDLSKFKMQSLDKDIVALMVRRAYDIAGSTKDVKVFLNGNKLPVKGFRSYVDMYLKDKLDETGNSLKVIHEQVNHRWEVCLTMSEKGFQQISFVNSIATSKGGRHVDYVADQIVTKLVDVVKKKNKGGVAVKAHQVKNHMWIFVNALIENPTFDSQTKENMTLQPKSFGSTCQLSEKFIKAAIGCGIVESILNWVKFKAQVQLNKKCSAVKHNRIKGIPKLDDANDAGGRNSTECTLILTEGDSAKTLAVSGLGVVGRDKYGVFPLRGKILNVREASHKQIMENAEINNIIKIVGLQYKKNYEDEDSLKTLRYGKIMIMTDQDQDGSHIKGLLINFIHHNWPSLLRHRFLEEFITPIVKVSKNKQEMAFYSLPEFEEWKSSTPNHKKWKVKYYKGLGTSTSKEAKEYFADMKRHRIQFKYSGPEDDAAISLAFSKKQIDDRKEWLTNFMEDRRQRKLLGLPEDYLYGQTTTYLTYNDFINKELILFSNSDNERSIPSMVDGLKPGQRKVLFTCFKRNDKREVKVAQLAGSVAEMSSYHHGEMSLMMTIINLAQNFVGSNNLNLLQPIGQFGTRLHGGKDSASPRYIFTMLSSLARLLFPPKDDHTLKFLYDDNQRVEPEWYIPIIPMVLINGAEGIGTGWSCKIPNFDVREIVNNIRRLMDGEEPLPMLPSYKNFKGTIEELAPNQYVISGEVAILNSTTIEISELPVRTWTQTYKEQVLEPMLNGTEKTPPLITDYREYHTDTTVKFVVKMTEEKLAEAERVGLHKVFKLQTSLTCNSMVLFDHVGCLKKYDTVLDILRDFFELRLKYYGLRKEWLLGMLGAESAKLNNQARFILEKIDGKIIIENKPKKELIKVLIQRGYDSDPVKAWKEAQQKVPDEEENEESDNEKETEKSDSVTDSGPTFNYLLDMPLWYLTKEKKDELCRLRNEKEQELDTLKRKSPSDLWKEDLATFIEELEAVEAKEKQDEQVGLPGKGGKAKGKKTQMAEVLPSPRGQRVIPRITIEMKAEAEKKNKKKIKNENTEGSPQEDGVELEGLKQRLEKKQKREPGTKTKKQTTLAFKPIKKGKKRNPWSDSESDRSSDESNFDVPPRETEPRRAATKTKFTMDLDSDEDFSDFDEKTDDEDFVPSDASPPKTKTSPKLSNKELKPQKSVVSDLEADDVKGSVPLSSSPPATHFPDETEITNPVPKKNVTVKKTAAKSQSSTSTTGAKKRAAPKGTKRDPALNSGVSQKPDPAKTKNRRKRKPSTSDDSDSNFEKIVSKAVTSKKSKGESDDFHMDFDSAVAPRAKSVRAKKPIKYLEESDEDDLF

## CCCCCCCCCCCCCCCCCC(=O)OCCCO[C@H]1O[C@H](CS(=O)(=O)O)[C@@H](O)[C@H](O)[C@H]1O [SQAP, Alpha-sulfoquinovosylacyl-1,3-propanediol]
[1]
  adverse systemic events: not detected
[2]
  chromosome-type aberrations: approximately 2.4
[3]
  clearance from normal tissues and persistence in tumors: rapidly cleared from normal tissues but persists in tumors for several hours
[4]
  HR activity: significantly reduced
[5]; V79, SQAP pretreatment alone
  radiosensitization: did not enhance radiation sensitivity
[5]; V79, continuous SQAP treatment before and after irradiation, normoxic and hypoxic
  radiosensitization: Radiosensitization was observed
[6]; 30 µM SQAP
  cytotoxicity of continuous exposure of SQAP (clonogenic survival): tolerance
[6]; 60 µM SQAP
  cytotoxicity of continuous exposure of SQAP (clonogenic survival): minimal cell viability
[7]
  NHEJ activity: significantly reduced
[8]
  IC50: 25 µM
[9]
  HDAC1 enzymatic inhibition: does not inhibit
[10]
  IC50: 9 µM
[11]
  PARP inhibition: inhibitory effect
[12]
  sensitization enhancement ratio (SER): 1.3
[13]
  HDAC1 expression: reduces
